From ChEMBL document CHEMBL1614632, “Trend analysis of a database of intravenous pharmacokinetic parameters in humans for 670 drug compounds” (Drug Metab Dispos, 2008)

Key:
clinical [1] = details: human, in vivo, iv, t1/2
clinical [2] = details: human, in vivo, iv, CL
clinical [3] = details: human, in vivo, iv, Vdss
clinical [4] = details: human, in vivo, iv
clinical [5] = details: human, in vivo, iv; remark: listed apart in the source

| SMILES | half-life (clinical [1]) [h] | clearance (clinical [2]) [mL/min/kg] | Vd (clinical [3]) [L/kg] | MRT (clinical [4]) [h] | fraction unbound (clinical [5]) |
| --- | --- | --- | --- | --- | --- |
| COc1ccc(Cl)cc1[C@]1(F)C(=O)Nc2cc(C(F)(F)F)ccc21 [FLINDOKALNER] | 37 | 15 | 10 | 11 | 0.0038 |
| Nc1nc(F)nc2c1ncn2[C@@H]1O[C@H](CO)[C@@H](O)[C@@H]1O [FLUDARABINE] | 11 | 3.2 | 2.2 | 12 | 0.76 |
| O=C1OC2(c3ccc(O)cc3Oc3cc(O)ccc32)c2ccccc21 [FLUORESCEIN] | 1.6 | 1.3 | 0.14 | 1.8 | 0.11 |
| CCC(=O)O[C@]1(C(=O)SCF)[C@H](C)C[C@H]2[C@@H]3C[C@H](F)C4=CC(=O)C=C[C@]4(C)[C@@]3(F)[C@@H](O)C[C@@]21C [FLUTICASONE PROPIONATE] | 6 | 17 | 3.6 | 3.9 | 0.1 |
| O=P(O)(O)OC(Cn1cncn1)(Cn1cncn1)c1ccc(F)cc1F [FOSFLUCONAZOLE] | 2.1 | 1.3 | 0.15 | 2 | 0.042 |
| Nc1ccn([C@@H]2O[C@H](CO)[C@@H](O)C2(F)F)c(=O)n1 [GEMCITABINE] | 1 | 32 | 1.5 | 0.81 | 1 |
| C#C[C@]1(O)C=C[C@H]2[C@@H]3CCC4=CC(=O)CC[C@@H]4[C@H]3CC[C@@]21CC [GESTODENE] | 10 | 0.8 | 0.46 | 9.6 | 0.023 |
| CN1C(=O)NC(=O)C(C)(C2=CCCCC2)C1=O (stereo not given) [HEXOBARBITAL] | 4.9 | 3.4 | 1.1 | 5.4 | 0.53 |
| NNc1nncc2ccccc12 [HYDRALAZINE] | 0.96 | 85 | 1.5 | 0.29 | 0.12 |
| CCN(CCO)CCCC(C)Nc1ccnc2cc(Cl)ccc12 (stereo not given) [HYDROXYCHLOROQUINE] | 850 | 11 | 700 | 1300 | 0.57 |
| CCCCCN(C)CCC(O)(P(=O)(O)O)P(=O)(O)O [IBANDRONIC ACID] | 14 | 1.8 | 0.55 | 5.1 | 0.15 |
| CC(=O)[C@]1(O)Cc2c(O)c3c(c(O)c2[C@@H](O[C@H]2C[C@H](N)[C@H](O)[C@H](C)O2)C1)C(=O)c1ccccc1C3=O [IDARUBICIN] | 16 | 24 | 38 | 26 | 0.076 |
| Nc1cc(-c2ccncc2)c[nH]c1=O [INAMRINONE] | 2 | 8.9 | 1.3 | 2.4 | 0.89 |
| CC1(C)C(/C=C/C=C/C=C/C=C2/N(CCCCS(=O)(=O)[O-])c3ccc4ccccc4c3C2(C)C)=[N+](CCCCS(=O)(=O)[O-])c2ccc3ccccc3c21.[Na+] [INDOCYANINE GREEN] | 0.065 | 6.8 | 0.035 | 0.086 | 0.05 |
| COc1ccc2c(c1)c(CC(=O)O)c(C)n2C(=O)c1ccc(Cl)cc1 [INDOMETHACIN] | 1.4 | 1.3 | 0.096 | 1.2 | 0.01 |
| O=C(NC1CCN(CCc2c[nH]c3ccccc23)CC1)c1ccccc1 [INDORAMIN] | 4.3 | 20 | 4.9 | 4.1 | 0.15 |
| CC(=O)N(CC(O)CO)c1c(I)c(C(=O)NCC(O)CO)c(I)c(C(=O)NCC(O)CO)c1I (stereo not given) [IOHEXOL] | 1.5 | 2 | 0.16 | 1.3 | 1 |
| C[C@H](O)C(=O)Nc1c(I)c(C(=O)NC(CO)CO)c(I)c(C(=O)NC(CO)CO)c1I [IOPAMIDOL] | 2.1 | 1.9 | 0.28 | 2.5 | 1 |
| COCC(=O)Nc1c(I)c(C(=O)NCC(O)CO)c(I)c(C(=O)N(C)CC(O)CO)c1I (stereo not given) [IOPROMIDE] | 2.6 | 1.4 | 0.22 | 2.6 | 0.99 |
| CCCCC1=NC2(CCCC2)C(=O)N1Cc1ccc(-c2ccccc2-c2nnn[nH]2)cc1 [IRBESARTAN] | 14 | 2.3 | 0.94 | 6.8 | 0.1 |
| CC(C)NCC(O)c1ccc(O)c(O)c1 (stereo not given) [ISOPROTERENOL] | 0.41 | 56 | 1.5 | 0.43 | 0.71 |

| SMILES | half-life (clinical [1]) [h] | clearance (clinical [2]) [mL/min/kg] | Vd (clinical [3]) [L/kg] | MRT (clinical [4]) [h] | fraction unbound (clinical [5]) |
| --- | --- | --- | --- | --- | --- |
| COC(=O)C1=C(C)NC(C)=C(C(=O)OC(C)C)C1c1cccc2nonc12 (stereo not given) [ISRADIPINE] | 3.3 | 26 | 1.5 | 1 | 0.04 |
| CNC1(c2ccccc2Cl)CCCCC1=O (stereo not given) [KETAMINE] | 2.8 | 19 | 2.9 | 2.5 | 0.47 |
| CCNC(=O)[C@@H]1CCCN1C(=O)[C@H](CCCNC(=N)N)NC(=O)[C@H](CC(C)C)NC(=O)[C@@H](CC(C)C)NC(=O)[C@H](Cc1ccc(O)cc1)NC(=O)[C@H](CO)NC(=O)[C@H](Cc1c[nH]c2ccccc12)NC(=O)[C@H](Cc1c[nH]cn1)NC(=O)[C@@H]1CCC(=O)N1 [LEUPROLIDE] | 2.9 | 2 | 0.38 | 3.1 | 0.54 |
| C#C[C@]1(O)CC[C@H]2[C@@H]3CCC4=CC(=O)CC[C@@H]4[C@H]3CC[C@@]21CC [LEVONORGESTREL] | 9.4 | 1.8 | 1.5 | 14 | 0.025 |
| C[C@@H]1CC(=O)NN=C1c1ccc(NN=C(C#N)C#N)cc1 [LEVOSIMENDAN] | 1.1 | 3.8 | 0.24 | 1.1 | 0.02 |
| CCC[C@@H]1C[C@@H](C(=O)N[C@@H]([C@H]2O[C@H](SC)[C@H](O)[C@@H](O)[C@H]2O)[C@@H](C)O)N(C)C1 [LINCOMYCIN] | 5.6 | 2.1 | 1 | 7.5 | 0.14 |
| O=C([O-])[O-].[Li+].[Li+] [LITHIUM CARBONATE] | 7.8 | 1.3 | 0.62 | 7.9 | 1 |
| CNCCCC12CCC(c3ccccc31)c1ccccc12 [MAPROTILINE] | 51 | 14 | 45 | 54 | 0.11 |
| CCOC(=O)C1(c2ccccc2)CCN(C)CC1 [MEPERIDINE] | 7.9 | 4.9 | 2.3 | 6.4 | 0.42 |
| Cc1cccc(C)c1NC(=O)C1CCCCN1C (stereo not given) [MEPIVACAINE] | 2 | 6.8 | 0.95 | 2.5 | 0.3 |
| CCCC(C)(COC(N)=O)COC(N)=O [MEPROBAMATE] | 14 | 0.6 | 0.7 | 19 | 1 |
| CCC1(c2cccc(O)c2)CCCCN(C)C1 (stereo not given) [MEPTAZINOL] | 1.7 | 28 | 3.3 | 2 | 0.73 |
| Nc1ccc(O)c(C(=O)O)c1 [MESALAMINE] | 0.61 | 9.3 | 0.33 | 0.59 | 0.39 |
| CN[C@@H](C)Cc1ccccc1 [METHAMPHETAMINE] | 12 | 4.4 | 4.3 | 16 | 0.85 |
| COc1cccc(OC)c1C(=O)N[C@@H]1C(=O)N2[C@@H]1SC(C)(C)[C@@H]2C(=O)O [METHICILLIN] | 0.64 | 6.6 | 0.32 | 0.8 | 0.43 |
| C=CCC1(C(C)C#CCC)C(=O)N=C(O)N(C)C1=O (stereo not given) [METHOHEXITAL] | 1.6 | 12 | 1.1 | 1.5 | 0.27 |
| COc1ccc2cc1Oc1cc3c(cc1OC)CC[N+](C)(C)[C@H]3Cc1ccc(cc1)Oc1c(OC)c(OC)cc3c1[C@@H](C2)[N+](C)(C)CC3.[I-].[I-] [METOCURINE IODIDE] | 5.1 | 1.2 | 0.4 | 5.6 | 0.65 |
| CC(=O)Nc1c(I)c(C(=O)O)c(I)c(N(C)C(C)=O)c1I [METRIZOIC ACID] | 1.3 | 2.7 | 0.17 | 1 | 1 |
| Cc1cccc(C)c1OCC(C)N (stereo not given) [MEXILETINE] | 9.9 | 8.3 | 5.9 | 12 | 0.36 |
| CC1(C)S[C@@H]2[C@H](NC(=O)[C@H](NC(=O)N3CCN(S(C)(=O)=O)C3=O)c3ccccc3)C(=O)N2[C@H]1C(=O)O [MEZLOCILLIN] | 1.2 | 2.1 | 0.09 | 0.71 | 0.7 |
| COCC(=O)O[C@]1(CCN(C)CCCc2nc3ccccc3[nH]2)CCc2cc(F)ccc2[C@@H]1C(C)C [MIBEFRADIL] | 13 | 4 | 3.1 | 13 | 0.005 |
